Measurements from patent EP0565593B1, “REDUCING PESTICIDAL INTERACTIONS IN CROPS” (priority 1990, dated 1992).
Like-named read-outs stand apart in the source and are kept apart here.

How the values were obtained:
[1] = tested on: Corn
[2] = tested on: Corn; details: Example 29; COUNTER/PURSUIT negative synergy
[3] = tested on: Corn; experiment: Greenhouse test Procedure VI: biocide and antidote in furrow, herbicide PPI in cover layer (Examples 43-47, 59-61; Tables 42-46, 58-60); assay type: in vivo
Procedure, shortened: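 Corn seed furrows given granular biocide (COUNTER 15G, 1.1 mg a.i./cm row) and antidote (0.37 mg a.i./cm row); herbicide in acetone or acetone/water incorporated into cover-layer soil (PPI). Duplicate pots in greenhouse, subirrigated plus overhead watering; corn injury observed, in some series thirteen days after PPI, against untreated, herbicide and herbicide+biocide controls.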

Q: Which “safening” value ([1]; DIAZINON + Herbicides 1, 21, 18, Example 53) does the source give for `COC(=O)COC(c1ccccc1)c1ccccc1` [Antidote No. 12, Acetic acid, (diphenylmethoxy)-, methyl ester] here?
A: Effective safening

Q: What about the “safening” value ([1]; malathion + Herbicides 1, 21, 18, Example 54) of the same compound?
A: moderate to high degrees of safening

Q: And the “relieving corn injury, comparison” value [2]?
A: more active than Antidote No. 28

Q: What about the “safener efficacy, comparison” value ([3]; COUNTER 15G + PURSUIT/co-herbicides, Example 61) of the same compound?
A: more effective than flurazole or MON-4660

Q: What about the “safener efficacy” value ([3]; COUNTER 15G + XRD-498/co-herbicide mixture, Example 60) of the same compound?
A: most effective safener

Q: And the “safening” value ([3]; COUNTER 15G/PURSUIT interaction, Example 47)?
A: good activity
